# From patent US5532167A, “Substrate specificity of protein kinases” (Beth Israel Hospital, priority 1994, dated 1996)
# Where no end group is shown, it is not given here.
# Columns and labels:
# EGF receptor = biological target: T1, EGF receptor (Homo sapiens, UniProt P00533); test: Kinetics of EGF receptor phosphorylating synthetic peptide; assay type: biochemical; details: peptide as substrate; 10 μM ATP, 10 mM MnCl2, pH 7.0
# T1 construct: made in house
# Description: (§1) The degenerate peptide library constructed as described in Example 1, with either serine or tyrosine at the 7th position, was used as a substrate for several different protein kinases. Protein kinase A (bovine) was obtained commercially (Sigma). GST-cyclin B/p33^cdc2 (Atherton-Fessler et al. (1993) Mol. Cell. Biol. 13:1675-1685), GST-cyclinA/p33^CDK2 (Atherton-Fessler et al. (1993) Mol. Cell. Biol. 13:1675-1685), human EGF receptor, chicken pp60^v-src, polyoma virus middle T antigen/pp60^c-src (Piwnica-Worms et al. (1990) J. Virol. 64:61-68) and pp92^c-pfs/fes were expressed by baculoviruses. The baculovirus-expressed protein kinases were immobilized on protein A beads using precipitating antibodies or on glutathione-agarose bead for kinases obtained as GST fusion proteins to minimize the problem of separating the peptides from the enzyme or impurities in the enzyme. […]
# (§2) The peptide sequences predicted to be optimal substrates for the cyclindependent serine/threonine kinases and for pp60^v-src tyrosine kinase were synthesized to determine whether they are indeed good substrates for these kinases. […] After 2 and a half minutes incubation, the supernatants were spotted on phosphocellulose paper (p81), washed four times with 75 mM phosphoric acid, and radioactivity counted on a scintillation counter. […] The Km and Vmax were calculated using the Kaleidagraph computer software.
# cyclin A/p33^CDK2 = biological target: T2, cyclin A/p33^CDK2 (Homo sapiens, UniProt P24941); test: Kinetics of cyclin A/p33CDK2 phosphorylating synthetic peptide; assay type: biochemical; details: peptide as substrate; 10 μM ATP, 10 mM MgCl2, pH 7.0
# T2 construct: made in house
# Description: as §1, §2
# PKA = PKA (Bos taurus, UniProt P00517); details: relative to Kemptide; cited from earlier work
compound,measurement,setting,value
"CC[C@H](C)[C@H](NC(=O)[C@H](CCC(=O)O)NC(=O)[C@H](CCC(=O)O)NC(=O)[C@H](CCC(=O)O)NC(=O)[C@H](C)N)C(=O)N[C@@H](Cc1ccc(O)cc1)C(=O)NCC(=O)N[C@@H](CCC(=O)O)C(=O)N[C@@H](Cc1ccccc1)C(=O)N[C@@H](CCC(=O)O)C(=O)N[C@@H](C)C(=O)N[C@@H](CCCCN)C(=O)N[C@@H](CCCCN)C(=O)N[C@@H](CCCCN)C(=O)N[C@@H](CCCCN)C(=O)O [AEEEIYGEFEAKKKK, Ala-Glu-Glu-Glu-Ile-Tyr-Gly-Glu-Phe-Glu-Ala-Lys-Lys-Lys-Lys]",Km,EGF receptor,34 µM
"ARRPMSPKKKA [ARRPMSPKKKA, Ala-Arg-Arg-Pro-Met-Ser-Pro-Lys-Lys-Lys-Ala]",Km,cyclin A/p33^CDK2,15 µM
"Optimal peptide substrate based on fragment of Walsh inhibitor: known PKA peptide substrate, sequence G R T G R R N S I, from the literature (GRTGRRNSI)",fold lower KM than Kemptide,PKA,40 fold
